In patent US4212939A, “Substrate solution for carboxylic ester hydrolase determination” (The University of Alabama, priority 1977, dated 1980):

Key:
[1] = target: T1, porcine pancreatic lipase (Sus scrofa, UniProt P00591); experiment: Activation of ester hydrolase in the vinyl ester reagent system (ADH/NADH coupled, 340 nm); type: biochemical; details: for activation of porcine pancreatic lipase by quaternary ammonium compound: in the absence of bile salts; for activation of porcine pancreatic lipase by bile salt: vinyl omega-phenyl octanoate as substrate, sodium taurodeoxycholate zero to 25 mM, sodium cholate zero to 10 mM, sodium chenodeoxycholate zero to 15 mM
T1 sequence (P00591 1-450): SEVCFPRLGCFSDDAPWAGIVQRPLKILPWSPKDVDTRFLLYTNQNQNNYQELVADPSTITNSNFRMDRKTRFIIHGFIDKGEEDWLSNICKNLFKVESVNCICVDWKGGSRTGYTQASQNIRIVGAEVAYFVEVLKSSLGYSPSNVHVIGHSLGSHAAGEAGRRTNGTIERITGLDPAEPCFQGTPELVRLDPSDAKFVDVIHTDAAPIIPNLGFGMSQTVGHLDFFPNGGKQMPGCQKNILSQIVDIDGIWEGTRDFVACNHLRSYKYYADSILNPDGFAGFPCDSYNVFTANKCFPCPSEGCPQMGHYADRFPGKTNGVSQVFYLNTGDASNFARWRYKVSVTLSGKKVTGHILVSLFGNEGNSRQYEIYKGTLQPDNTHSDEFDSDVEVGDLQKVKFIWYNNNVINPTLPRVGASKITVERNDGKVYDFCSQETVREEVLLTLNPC
Source text: (§1) In accordance with the preferred embodiments of this invention, we prefer to carry out the analysis of carboxylic acid ester hydrolase by admixing an unknown, suspected of containing this enzyme with a reagent system wherein first a vinyl ester of a carboxylic acid is hydrolyzed by the enzyme into the carboxylic acid and unstable vinyl alcohol. As a second step, the vinyl alcohol isomerizes to acetaldehyde. This sequence of conversions is indicated diagrammatically as follows: [drawing 1] The acetaldehyde of reaction (2) may be detected by a variety of means known to the prior art. For example, enzymatic methods are illustrated below in reactions (3a) and (3b), and involve monitoring the disappearance (3a) or appearance (3b) of NADH by measuring its absorbance or fluorescence at suitable wavelengths. The velocity of reactions (3a) or (3b) may then be equated with reaction (1) when the components of the mixture are all in sufficient excess so that only the ester hydrolase activity is limiting. Chemical methods (3c) may include any nonenzymatic means for the quantitative analysis of acetaldehyde. [formula]
(§2) The range of concentrations of sodium deoxycholate (or its free acid) is from zero to about 25 mM, but the preferred range is about 15 to 21 mM for porcine pancreatic lipase, crude human pancreas extract, and lipase in human blood serum.
Activation of porcine pancreatic lipase and crude human pancreas extract can also be accomplished with various cationic alkyl and alkyl-aryl quaternary ammonium compounds such as cetyltrimethyl ammonium bromide (CTAB) and cetyldimethylbenzyl ammonium chloride (CDMBAC) in the absence of bile salts. The useful range of CTAB concentrations for activation of porcine pancreatic lipase is from about 4 to 12 mM, but most preferred is from 7 to 9 mM. The useful range of CDMBAC concentrations for activation of porcine pancreatic lipase is from about 2 to 9 mM, but most preferred is about 5 to 9 mM. When used together sodium deoxycholate (or its acid) and either CTAB or CDMBAC activate porcine pancreatic lipase about 10 fold over the activity without these components together. Sodium deoxycholate and CTAB are useful when used together in the ranges of zero to 25 mM and zero to 15 mM, respectively, but the preferred concentrations are 10 mM to 20 mM sodium deoxycholate and 4 mM to 10 mM CTAB. When deoxycholate and CDMBAC are used together for the activation of porcine pancreatic lipase the useful concentrations of deoxycholate are from zero to about 20 mM, but the preferred concentrations are 10 mM to 20 mM deoxycholate and 10 mM to 15 mM CDMBAC.
(2) Buffer Solution. While the method of preparation of the buffer solution is not critical, one method for forming it is as follows: Weigh into a one liter beaker 3.134 gm 1, 1, 3, 3-tetramethyl-1-phenoxy (polyethoxy) butane (n=polydisperse, average 9) and 12.912 gm 1, 1, 3, 3-tetramethyl-1-phenoxy(polyethoxy)n butane, 70% (n=polydisperse, average 30). Add about 800 ml of deionized or glass redistilled water and stir with a magnetic stirring bar until the detergents are dissolved. Add 9.534 gm sodium deoxycholate and continue stirring until dissolved. Then add 25.652 gm tetrasodium pyrophosphate (Na4 P2 O7.10 H2 O) and stir until the crystals dissolve. Add with stirring in approximately five equal portions a total of 231.51 gm of potassium chloride, allowing each portion to almost completely dissolve before adding the next. Stop the stirring when all of the KCl has dissolved. […]

[2] = target: T2, crude human pancreas extract (human lipase) (Homo sapiens, UniProt P16233); experiment: as above; type: biochemical; details: for activation of crude human pancreas extract by quaternary ammonium compound: in the absence of bile salts
T2 construct: vinyl ester hydrolysis coupled to ADH/NADH
T2 sequence (P16233 17-465): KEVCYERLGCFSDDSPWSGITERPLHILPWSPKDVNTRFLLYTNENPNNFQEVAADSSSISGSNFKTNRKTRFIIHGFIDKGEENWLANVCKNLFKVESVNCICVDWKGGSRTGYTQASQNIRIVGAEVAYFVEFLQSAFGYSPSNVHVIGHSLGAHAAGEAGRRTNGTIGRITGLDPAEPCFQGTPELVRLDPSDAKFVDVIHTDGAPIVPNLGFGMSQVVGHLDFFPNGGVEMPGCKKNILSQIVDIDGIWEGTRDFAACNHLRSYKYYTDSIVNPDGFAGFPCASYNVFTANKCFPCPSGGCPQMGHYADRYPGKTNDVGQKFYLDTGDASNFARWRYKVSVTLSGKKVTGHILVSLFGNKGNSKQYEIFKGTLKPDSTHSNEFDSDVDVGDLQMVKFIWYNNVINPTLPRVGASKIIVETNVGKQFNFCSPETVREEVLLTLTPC

[3] = test system: porcine liver esterase; experiment: as above; type: biochemical; details: for activation of porcine liver esterase by bile salt: vinyl omega-phenyl octanoate as substrate, sodium taurodeoxycholate zero to 25 mM, sodium cholate zero to 10 mM, sodium chenodeoxycholate zero to 15 mM
Source text: as §1, §2
(2) Buffer Solution. While the method of preparation of the buffer solution is not critical, one method for forming it is as follows: Weigh into a one liter beaker 3.134 gm 1, 1, 3, 3-tetramethyl-1-phenoxy (polyethoxy) butane (n=polydisperse, average 9) and 12.912 gm 1, 1, 3, 3-tetramethyl-1-phenoxy(polyethoxy)n butane, 70% (n=polydisperse, average 30). Add about 800 ml of deionized or glass redistilled water and stir with a magnetic stirring bar until the detergents are dissolved. Add 9.534 gm sodium deoxycholate and continue stirring until dissolved. Then add 25.652 gm tetrasodium pyrophosphate (Na4 P2 O7.10 H2 O) and stir until the crystals dissolve. Add with stirring in approximately five equal portions a total of 231.51 gm of potassium chloride, allowing each portion to almost completely dissolve before adding the next. Stop the stirring when all of the KCl has dissolved. Add 1.15 gm bovine serum albumin by sprinkling on the liquid surface. When all of the BSA has dissolved, begin stirring again and add more water to bring the volume up to about 950 ml. Adjust the pH to 9.1 with dilute HCl solution. […] Quantitatively transfer the solution to a one liter volumetric flask and add water to the mark. […] After any endogenous acetaldehyde in the reagent has been reduced and the corresponding oxidation of NADH has slowed to the normal blank rate, the absorbance at 340 nm in a 1 cm light path will be approximately 1.5. […]

[4] = target: T1, porcine pancreatic lipase; details: same conditions as glycerol trioleate; cited from earlier work

**Q.** What does the source list for `CCCCCCCCCCCCCCCC[N+](C)(C)C.[Br-]` [CTAB, cetyltrimethyl ammonium bromide]?
**A.** activation of porcine pancreatic lipase by quaternary ammonium compound [1]: Activation; activation of crude human pancreas extract by quaternary ammonium compound [2]: Activation

**Q.** Which “activation of porcine pancreatic lipase by bile salt” value [1] does the source give for `C[C@H](CCC(=O)O)[C@H]1CC[C@H]2[C@@H]3[C@H](O)C[C@@H]4C[C@H](O)CC[C@]4(C)[C@H]3CC[C@]12C` [sodium chenodeoxycholate] here?
**A.** slightly activate

**Q.** And the “activation of porcine liver esterase by bile salt” value [3]?
**A.** slightly activate

**Q.** What does the source list for `C[C@H](CCC(=O)O)[C@H]1CC[C@H]2[C@@H]3CC[C@@H]4C[C@H](O)CC[C@]4(C)[C@H]3C[C@H](O)[C@]12C` [sodium deoxycholate]?
**A.** activation of human lipase by deoxycholate alone compared with the combination with CDMBAC ([2]; deoxycholate concentration about above 4 mM, in the absence of CDMBAC): activated to a much greater extent; activation of porcine liver esterase by sodium deoxycholate ([3]; concentrations up to about 25 mM): only slightly activated

**Q.** Which “activation of porcine pancreatic lipase by bile salt” value [1] does the source give for `C[C@H](CCC(=O)O)[C@H]1CC[C@H]2[C@@H]3[C@H](O)C[C@@H]4C[C@H](O)CC[C@]4(C)[C@H]3C[C@H](O)[C@]12C` [sodium cholate] here?
**A.** slightly activate

**Q.** And the “activation of porcine liver esterase by bile salt” value [3]?
**A.** slightly activate

**Q.** What does the source list for `CCCCCCCCCCCCCCCC[N+](C)(C)Cc1ccccc1.[Cl-]` [CDMBAC, cetyldimethylbenzyl ammonium chloride]?
**A.** activation of porcine pancreatic lipase by quaternary ammonium compound [1]: Activation; activation of crude human pancreas extract by quaternary ammonium compound [2]: Activation

**Q.** With `C[C@H](CCC(=O)NCCS(=O)(=O)O)[C@H]1CC[C@H]2[C@@H]3CC[C@@H]4C[C@H](O)CC[C@]4(C)[C@H]3C[C@H](O)[C@]12C` [Sodium taurodeoxycholate, sodium taurodeoxycholate] as the molecule, how does the “activation of porcine pancreatic lipase by bile salt” value [1] read?
**A.** slightly activate

**Q.** What about the “activation of porcine liver esterase by bile salt” value [3] of the same molecule?
**A.** slightly activate

**Q.** For `C=COC(=O)CCCCCCC/C=C\CCCCCCCC` [vinyl oleate], which “effectiveness as substrate relative to glycerol trioleate” value [4] is on record?
**A.** 29.4%
